{"source": "patent US20120142720A1", "about": "“Phenylethanoic Acid, Phenylpropanoic Acid and Phenylpropenoic Acid Conjugates and Prodrugs of Hydrocodone, Methods of Making and Use Thereof” (KEMPHARM, INC., priority 2009, published 2012)", "key": {"[1]": {"assay": "Water solubility / feasibility of intravenous or intranasal dosing", "settings": "with regard to intravenous or intranasal dosing at oral equivalent doses"}, "[2]": {"assay": "Chemical stability: hydrolysis in 5% NaHCO3", "type": "physicochemical", "settings": "5% NaHCO3, one hour"}, "[3]": {"assay": "Chemical stability: hydrolysis to hydrocodone in 1N HCl", "settings": "1 hour"}, "[4]": {"assay": "Intranasal PK profile in rats, plasma hydrocodone and hydromorphone by LC-MS/MS"}, "[5]": {"assay": "Oral PK profile in rats, plasma hydrocodone and hydromorphone by LC-MS/MS"}, "[6]": {"settings": "equivalent to 2 mg/kg freebase hydrocodone, FIG. 7"}, "[7]": {"settings": "equivalent to 2 mg/kg freebase hydrocodone, FIG. 8"}}, "data": [{"smiles": "COc1ccc2c3c1OC1C(OC(=O)CCCCC(=O)O)=CC[C@H]4[C@@H](C2)N(C)CC[C@]314", "note": "(stereo partly drawn) [Adipate-HC]", "values": [{"measurement": "water solubility", "setting": "[1]", "value": "water-soluble"}, {"measurement": "initial amount of conjugate hydrolyzed", "setting": "[2]; ambient (~20° C.)", "value": 3, "unit": "%"}, {"measurement": "initial amount of conjugate hydrolyzed", "setting": "[2]; oil bath 100° C.", "value": 100, "unit": "%"}, {"measurement": "initial amount of conjugate hydrolyzed", "setting": "[3]; ambient (~20° C.)", "value": 13, "unit": "%"}, {"measurement": "initial amount of conjugate hydrolyzed", "setting": "[3]; oil bath 100° C.", "value": 100, "unit": "%"}, {"measurement": "hydrocodone AUC, higher than Ibu-HC", "setting": "[4]; [6]", "value": "approximately 170%"}, {"measurement": "hydrocodone Cmax, higher than Ibu-HC", "setting": "[4]; [6]", "value": "~245", "unit": "%"}, {"measurement": "hydromorphone AUC, higher than Ibu-HC", "setting": "[4]; [7]", "value": "approximately 940%"}, {"measurement": "hydromorphone Cmax, higher than Ibu-HC", "setting": "[4]; [7]", "value": "~1,010%"}]}, {"smiles": "COc1ccc2c3c1OC1C(OC(=O)/C=C/c4ccccc4)=CCC4C(C2)N(C)CCC314", "note": "(stereo not drawn) [Cinnamate-HC, cinnamate-hydrocodone]", "values": [{"measurement": "hydrocodone plasma concentrations during subsequent elimination compared with Hydrocodone.BT", "setting": "[5]; equivalent to 2 mg/kg freebase hydrocodone, FIG. 9", "value": "similar"}]}, {"smiles": "COc1ccc2c3c1OC1C(OC(=O)COCC(=O)O)=CC[C@H]4[C@@H](C2)N(C)CC[C@]314", "note": "(stereo partly drawn) [Diglycolate-HC]", "values": [{"measurement": "water solubility", "setting": "[1]", "value": "water-soluble"}]}, {"smiles": "COc1ccc2c3c1O[C@H]1C(=O)CC[C@H]4[C@@H](C2)N(C)CC[C@]314.O=C(O)C(O)C(O)C(=O)O", "note": "[Hydrocodone.BT, hydrocodone bitartrate]", "values": [{"measurement": "hydrocodone AUC, higher than Ibu-HC", "setting": "[4]; Example 6, FIG. 11", "value": "approximately 300%"}, {"measurement": "hydrocodone Cmax, higher than Ibu-HC", "setting": "[4]; Example 6, FIG. 11", "value": "~525", "unit": "%"}]}, {"smiles": "COc1ccc2c3c1OC1C(OC(=O)C(C)c4ccc(CC(C)C)cc4)=CCC4C(C2)N(C)CCC314", "note": "(stereo not drawn) [Ibu-HC, ibuprofen-hydrocodone]", "values": [{"measurement": "water solubility", "setting": "[1]", "value": "very low water solubility"}, {"measurement": "initial amount of conjugate hydrolyzed", "setting": "[2]; ambient (~20° C.)", "value": 0, "unit": "%"}, {"measurement": "initial amount of conjugate hydrolyzed", "setting": "[2]; oil bath 100° C.", "value": 22, "unit": "%"}, {"measurement": "hydromorphone AUC compared with Diglycolate-HC", "setting": "[5]; equivalent of 2 mg/kg hydrocodone freebase, FIG. 6", "value": "similar"}, {"measurement": "hydrocodone and hydromorphone plasma concentrations compared with unconjugated Hydrocodone.BT", "setting": "[5]; equivalent to 2 mg/kg freebase hydrocodone, FIG. 9 and FIG. 10", "value": "similar"}, {"measurement": "AUC and Cmax values (hydrocodone and hydromorphone) compared with Hydrocodone.BT", "setting": "[5]; same dose based on hydrocodone freebase", "value": "within the range of bioequivalence"}, {"measurement": "hydrocodone plasma concentrations compared with Hydrocodone.BT", "setting": "[4]; Example 6, FIG. 11", "value": "significantly lower"}, {"measurement": "hydromorphone plasma concentration compared with Hydrocodone.BT", "setting": "[4]; Example 6, FIG. 12", "value": "very low plasma concentration"}, {"measurement": "hydrocodone plasma concentrations compared with Adipate-HC", "setting": "[4]; [6]", "value": "significantly lower"}, {"measurement": "hydromorphone plasma concentration compared with Adipate-HC", "setting": "[4]; [7]", "value": "very low plasma concentration"}]}, {"smiles": "COc1ccc2cc(C(C)C(=O)OC3=CCC4C5Cc6ccc(OC)c7c6C4(CCN5C)C3O7)ccc2c1", "note": "(stereo not drawn) [Naproxen-HC, naproxen-hydrocodone]", "values": [{"measurement": "initial amount of conjugate hydrolyzed", "setting": "[2]; ambient (~20° C.)", "value": 0, "unit": "%"}, {"measurement": "initial amount of conjugate hydrolyzed", "setting": "[2]; oil bath 100° C.", "value": 8, "unit": "%"}, {"measurement": "initial amount of conjugate hydrolyzed", "setting": "[3]; ambient (~20° C.)", "value": 0, "unit": "%"}, {"measurement": "initial amount of conjugate hydrolyzed", "setting": "[3]; oil bath 100° C.", "value": 33, "unit": "%"}]}]}
